This note sets out measurements from ChEMBL document CHEMBL4689842, “EUbOPEN Chemogenomics Library wave 1” (2021).

Holding throughout (format): toxicity, cell-based
One data set has as its system HEK-293T. The experiment in a line: Incucyte cell viability with HEK293T. As to conditions: human, 10 µM, compound concentration 10 uM.
The next data set concerns Fibroblast. The experiment in a line: Incucyte cell viability with human fibroblast. As to conditions: 10 µM, compound concentration 10 uM.
The test system of a further data set is U2OS. The experiment in a line: Incucyte cell viability with U2OS. As to conditions: human, 10 µM, compound concentration 10 uM.
Setting [1] is: 0 h, replicate number 1, timepoint 0 hours.
Setting [2] is: 0 h, replicate number 2, timepoint 0 hours.
Setting [3] is: 6 h, replicate number 1, timepoint 6 hours.
Setting [4] is: 6 h, replicate number 2, timepoint 6 hours.
Where [5] appears, read: 12 h, replicate number 1, timepoint 12 hours.
Setting [6] is: 12 h, replicate number 2, timepoint 12 hours.
Where [7] appears, read: 18 h, replicate number 1, timepoint 18 hours.
Setting [8] is: 18 h, replicate number 2, timepoint 18 hours.
Where [9] appears, read: 24 h, replicate number 1, timepoint 24 hours.
Where [10] appears, read: 24 h, replicate number 2, timepoint 24 hours.
Further: filed as whole numbers so only -1 and 0 and 1 occur.

`Cc1ccc2[nH]c(CNCCCc3ccncc3)cc(=O)c2c1` [UCSF924NC]: the “Growth Rate” value is recorded as 1 in the data set with HEK-293T (setting [1]); 0 in the data set on HEK-293T (setting [2]); 0 in the data set on HEK-293T (setting [3]); 1 in the data set with HEK-293T (setting [4]); 0 in the data set with HEK-293T (setting [5]); 1 with HEK-293T (setting [6]). Further, the “Growth Rate” value in the data set on HEK-293T (setting [7]) came to 0; in the data set on HEK-293T (setting [8]), 1; with HEK-293T (setting [9]) it was 0; in the data set on HEK-293T (setting [10]), 1; in the data set on Fibroblast (setting [1]), 1; with Fibroblast (setting [3]), 0. Besides, the “Growth Rate” value is given as 0 in the data set on Fibroblast (setting [5]); 0 with Fibroblast (setting [7]); 0 with Fibroblast (setting [9]); 0 in the data set on U2OS (setting [3]); 0 in the data set on U2OS (setting [5]); 1 in the data set with U2OS (setting [6]). Moreover, the “Growth Rate” value in the data set on U2OS (setting [7]) was determined as 0; in the data set with U2OS (setting [8]), 1; with U2OS (setting [9]), 0.

For the molecule `CC[C@@H]1CN(C(=O)NCC(F)(F)F)C[C@@H]1c1cnc2cnc3[nH]ccc3n12` [UPADACITINIB], the “Growth Rate” value with HEK-293T (setting [1]) is listed as 0; with HEK-293T (setting [10]), 1; in the data set on Fibroblast (setting [1]) it was 0; with Fibroblast (setting [3]) it was 1; in the data set on Fibroblast (setting [5]), 1; with Fibroblast (setting [7]) it was 1. In addition, the “Growth Rate” value in the data set on Fibroblast (setting [9]) stood at 1; with U2OS (setting [1]), 0; in the data set on U2OS (setting [2]) it was 1; with U2OS (setting [3]), 0; in the data set on U2OS (setting [5]), 0; in the data set with U2OS (setting [6]), 1. In addition, the “Growth Rate” value in the data set with U2OS (setting [7]) and in the data set with U2OS (setting [9]) was 0 each time.

Consider `O=C(NNS(=O)(=O)c1ccccc1)c1cc(-c2ccnnc2)ccc1F` [WM-2474], for which the “Growth Rate” value in the data set with HEK-293T (setting [1]) is on record as 0; with HEK-293T (setting [3]), 1; with HEK-293T (setting [5]), 1; with HEK-293T (setting [7]), 1; with HEK-293T (setting [9]), 0; in the data set with HEK-293T (setting [10]) it was 1. Besides, the “Growth Rate” value in the data set with Fibroblast (setting [1]) was 0; in the data set with Fibroblast (setting [4]), 0; in the data set with Fibroblast (setting [5]), 1; with Fibroblast (setting [7]) it was 1; in the data set with Fibroblast (setting [9]) it was 1; in the data set on U2OS (setting [1]) it was 1. The “Growth Rate” value in the data set on U2OS (setting [2]) came to 0; with U2OS (setting [3]), 0; in the data set with U2OS (setting [5]) it was 0; with U2OS (setting [7]), 0; in the data set with U2OS (setting [9]), 1; in the data set on U2OS (setting [10]) it was 0.

Take `CC(C)(Cc1ccccc1)NCC(O)c1ccc(O)c(NS(C)(=O)=O)c1.Cl` (stereo not given) [ZINTEROL HYDROCHLORIDE]: the “Growth Rate” value is 0 in the data set on HEK-293T (setting [1]); 1 with HEK-293T (setting [3]); 0 with HEK-293T (setting [4]); 1 with HEK-293T (setting [5]); 0 in the data set on HEK-293T (setting [6]); 1 in the data set on HEK-293T (setting [7]). Besides, the “Growth Rate” value with HEK-293T (setting [8]) worked out at 0; with HEK-293T (setting [9]), 1; with HEK-293T (setting [10]), 0; in the data set with Fibroblast (setting [6]) it was 1; with Fibroblast (setting [8]), 1; with Fibroblast (setting [10]) it was 1. Also, the “Growth Rate” value in the data set on U2OS (setting [3]) was 0; in the data set on U2OS (setting [5]), 1; in the data set on U2OS (setting [7]), 0; in the data set on U2OS (setting [8]), 1; in the data set on U2OS (setting [9]), 1.
